Test results from US10550105B2 (Ribon Therapeutics Inc., priority 2018, dated 2020).

Experiments:
[1] = test system: NCI-H1373 lung cancer cells; experiment: Inhibition of cancer cell growth in NCI-H1373 lung cancer cells (FIG. 2); type: cell-based, human
PARP7 [2] = biological target: T1, PARP7 (Homo sapiens (Human), UniProt Q7Z3E1); experiment: Enzymatic assay for inhibition of PARP7: TR-FRET displacement of biotinylated Probe A from the TIPARP active site; type: binding; conditions: Table A-1
T1 sequence (Q7Z3E1 whole entry): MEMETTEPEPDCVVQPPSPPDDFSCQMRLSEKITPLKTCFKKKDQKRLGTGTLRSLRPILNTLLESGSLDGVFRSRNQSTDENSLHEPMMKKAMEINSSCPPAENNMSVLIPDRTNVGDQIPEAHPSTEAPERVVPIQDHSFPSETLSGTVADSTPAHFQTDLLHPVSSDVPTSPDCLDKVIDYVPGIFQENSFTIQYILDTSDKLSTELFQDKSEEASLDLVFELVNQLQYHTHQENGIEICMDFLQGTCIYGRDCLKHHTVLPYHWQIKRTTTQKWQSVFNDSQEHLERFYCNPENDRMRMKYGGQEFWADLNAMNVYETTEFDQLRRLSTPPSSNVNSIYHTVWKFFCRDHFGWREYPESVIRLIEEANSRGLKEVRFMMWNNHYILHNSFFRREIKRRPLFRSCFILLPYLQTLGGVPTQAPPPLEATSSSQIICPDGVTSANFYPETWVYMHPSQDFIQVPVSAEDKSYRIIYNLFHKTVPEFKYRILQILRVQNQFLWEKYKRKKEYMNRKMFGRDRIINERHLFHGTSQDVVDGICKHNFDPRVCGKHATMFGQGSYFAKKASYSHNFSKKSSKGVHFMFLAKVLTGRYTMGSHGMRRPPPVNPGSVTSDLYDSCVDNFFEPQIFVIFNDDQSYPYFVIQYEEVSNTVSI
Method in brief: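 TR-FRET, ex 320 nm / em 615 and 665 nm. Signal ratio reflects complex formation.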

CT26 cells = experiment: Proliferation of CT26 cells in the presence of PARP7 inhibitors (CellTiter-Glo, 4 days); type: cell-based, mouse; conditions: CellTiter-Glo (FIG. 5)
Experimental: Example F: Proliferation of CT26 cells in the presence of PARP7 inhibitors
CT26 cells were plated in a 384-well plate and allowed to adhere for several hours before being treated with Compound 18B. Cells were incubated with compound for 4 days prior to processing with CellTiter-Glo reagent (Promega). Luminescence was measured with a Perkin Elmer Envision and percent inhibition was calculated using the vehicle (DMSO) average as 0% inhibition. Non-linear regression analysis was performed using a 4 parameter (variable slope) fit in GraphPad Prism.

HCC827 = experiment: Growth inhibition of cancer cell lines, 72 hrs (CellTiter-Glo); type: cell-based; conditions: Homo sapiens, lung, adenocarcinoma
Experimental: (§1) Example C: Inhibition of Cancer Cell Growth by Treatment with PARP7 Inhibitors
(§2) Table A-2 and Table A-3 (below) represents the concentration that causes 50% growth inhibition (GI50) in a panel of cancer cell lines with Compound 18B and Compound 561. Cells were plated into 384-well plates at a pre-specified density in fetal bovine serum-containing media. Cells were treated with compound or vehicle (DMSO) 24 hrs later, and a day zero plate was collected for analysis. Test compound plates were incubated continuously for 72 hrs (Table A-2) or 144 hours (Table A-3) cell growth was assessed using a luminescent cell viability assay (CellTiter-Glo, Promega). The GI50was determined by correcting for the cell count at time zero (time of treatment) and plotting data as percent growth relative to vehicle-treated cells.

EBC-1 = experiment: as above; type: cell-based; conditions: Homo sapiens, lung, squamous cell carcinoma
Experimental: as §1, §2

NCI-H1373 = experiment: as above; type: cell-based; conditions: Homo sapiens, lung, adenocarcinoma
Experimental: as §1, §2

LUDLU-l = experiment: as above; type: cell-based; conditions: lung, squamous cell carcinoma
Experimental: as §1, §2

CFPAC-1 = experiment: as above; type: cell-based; conditions: Homo sapiens, pancreas, ductal carcinoma
Experimental: as §1, §2

HCC-2279 = experiment: as above; type: cell-based; conditions: lung, adenocarcinoma
Experimental: as §1, §2

NCI-H2081 = experiment: as above; type: cell-based; conditions: Homo sapiens, lung, not specified
Experimental: as §1, §2

YH-13 = experiment: as above; type: cell-based; conditions: central nervous system, astrocytoma Grade IV
Experimental: as §1, §2

HCC1937 = experiment: as above; type: cell-based; conditions: Homo sapiens, breast, ductal carcinoma
Experimental: as §1, §2

NCI-H647 = experiment: as above; type: cell-based; conditions: Homo sapiens, lung, mixed adenosquamous carcinoma
Experimental: as §1, §2

LS123 = experiment: as above; type: cell-based; conditions: Homo sapiens, LS-123, large intestine, adenocarcinoma
Experimental: as §1, §2

TYK-nu = experiment: as above; type: cell-based; conditions: ovary, undifferentiated carcinoma
Experimental: as §1, §2

PARP7 [3] = biological target: T1, PARP7; experiment: Inhibition of PARP7 (Table A-1); type: biochemical; conditions: comparison of separated isomers, see Table A-1
[4] = test system: CT26 colon cancer syngeneic model; experiment: Inhibition of tumor growth by oral dosing, murine CT26 colon cancer syngeneic model; type: in vivo; conditions: CT26 in BALB/c mice; BID 125-500 mg/kg or QD 500 mg/kg for 21 days; vs vehicle, P<0.0001 (FIG. 7B)
Source text: (§3) Example H: Inhibition of Tumor Growth by Oral Dosing with a PARP7 Inhibitor
(§4) The effect of Compound 561 on tumor growth was studied in a human NCI-H1373 lung cancer xenograft and a murine CT26 colon cancer syngeneic model.
For the CT26 study, BALB/c mice were inoculated subcutaneously in the right flank with CT26 cells for tumor development. After 5 days of cell inoculation, mice with 36-79 mm^3 tumors were randomized into treatment groups with mean tumor volumes of 54 mm^3. The treatments were started from the next day post randomization (defined randomization day as day 0) and were treated with vehicle (25 or 50% Labrasol) or Compound 561 BID (2 times a day every 12 hours) at doses ranging from 125-500 mg/kg or QD (once a day) at 500 mg/kg for 21 days by oral gavage or needle subcutaneously. Tumor volumes were determined by manual calipers every 2-3 days. Mean tumor volume and SEM are plotted. BID: twice a day; PO: per oral administration; QD: once a day; SC: per subcutaneous administration. The first two doses for vehicle and Compound 561 500 mg/kg in the QD groups were delivered by subcutaneous injection. […] Statistical significance is calculated using two-way ANOVA followed by Bonferroni post-tests in which the treatment groups were compared to vehicle control (**** P<0.0001).

[5] = test system: NCI-H1373 lung cancer xenograft; experiment: Inhibition of tumor growth by oral dosing, human NCI-H1373 lung cancer xenograft; type: in vivo; conditions: NCI-H1373 xenograft in SCID mice
Source text: as §3, §4
For the NCI-H1373 study, SCID mice were inoculated subcutaneously in the right flank with NCI-H1373 cells for tumor development. After 5 days of tumor growth, mice with 89-148 mm^3 tumors were randomized into treatment groups with mean tumor volumes of 121 mm^3. The treatments were started from the next day post randomization (defined randomization day as day 0) and were treated with vehicle (50% Labrasol) or Compound 561 (62.5, 125, 250, and 500 mg/kg) once a day for 28 days by oral gavage. Tumor volumes were determined by manual calipers every 2-3 days. Mean tumor volume and SEM are plotted. QD: once a day; PO: per oral administration. Statistical significance is calculated using two-way ANOVA followed by Bonferroni post-tests in which the treatment groups were compared to vehicle control (**** P<0.0001).

| SMILES | growth of NCI-H1373 lung cancer cells [1] | IC50 (PARP7 [2]) [µM] | proliferation in CT26 cells in vitro (CT26 cells) | GI50 (HCC827) [µM] | GI50 (EBC-1) [µM] | GI50 (NCI-H1373) [µM] | GI50 (LUDLU-l) [µM] | GI50 (CFPAC-1) [µM] | GI50 (HCC-2279) [µM] | GI50 (NCI-H2081) [µM] | GI50 (YH-13) [µM] | GI50 (HCC1937) [µM] | GI50 (NCI-H647) [µM] | GI50 (LS123) [µM] | GI50 (TYK-nu) [µM] | relative potency of the enantiomers / diastereomers (PARP7 [3]) | tumor growth [4] | tumor growth ([5]; 62.5, 125, 250 and 500 mg/kg once a day for 28 days by oral gavage, vs vehicle, P<0.0001 (FIG. 7A)) | tumor regression ([5]; 62.5 to 500 mg/kg once a day for 28 days, all dose levels) |
| --- | --- | --- | --- | --- | --- | --- | --- | --- | --- | --- | --- | --- | --- | --- | --- | --- | --- | --- | --- |
| N#Cc1ccc(N2CCN(C(=O)c3cccc(OC[C@@H]4c5ccccc5CN4c4cn[nH]c(=O)c4C(F)(F)F)c3)CC2)nc1 (single isomer, unassigned) [Example 18 Isomer B] | dose-dependent decrease in growth | < 0.1 | do not inhibit proliferation | 0.1 to 1 | < 0.1 | < 0.1 | 0.1 to 1 | 0.1 to 1 | 0.1 to 1 | 0.1 to 1 | < 0.1 | < 0.1 | < 0.1 | 0.1 to 1 | < 0.1 | more potent enantiomer | – | – | – |
| C[C@@H](COCCC(=O)N1CCN(c2ncc(C(F)(F)F)cn2)CC1)Nc1cn[nH]c(=O)c1C(F)(F)F [Example 561, 5-[[(2S)-1-(3-oxo-3-[4-[5-(trifluoromethyl)pyrimidin-2-yl]piperazin-1-yl]propoxy)propan-2-yl]amino]-4-(trifluoromethyl)-2,3-dihydropyridazin-3-one] | – | – | – | – | – | – | – | – | – | – | – | – | – | – | – | – | significantly reduces tumor growth | significantly reduces tumor growth | complete tumor regression |
